Results reported in US20040040554A1 (priority 2000, published 2004).
Like-named read-outs stand apart in the source and are kept apart here.

Experiments:
[1] = tested on: influenza A virus (A/PR/8/34 strain)
[2] = tested on: influenza A virus (A/PR/8/34 strain); format: cell-based; conditions: read-out: Inhibiting Activity Cell Fusion (IC50)
[3] = tested on: influenza A virus (A/PR/8/34 strain); format: cell-based; conditions: read-out: Inhibiting Activity Infection (IC50)

Pentenyl(5-acetamido-3,5-dideoxy-D-glycero-α-D-galacto-2-nonulopyranosylic Acid)-O-β-D-galactopyranosyl-(1→4)-O-β-D-glucopyranoside [vii]
Inhibiting Activity Erythrocyte Aggregation [1]: 133.3 µM
IC50 [2]: 745 µM
IC50 [3]: 124 µM
